Measured values reported in ChEMBL document CHEMBL4842322, “A naphthalimide-polyamine conjugate preferentially accumulates in hepatic carcinoma metastases as a lysosome-targeted antimetastatic agent” (Eur J Med Chem, 2021).
Calls of active or inactive are those of the source. The calls are words filed in the database; no cut-off is given here.

How the values were obtained:
Huh-7 [1] = assay: Cytotoxicity against human Huh-7 cells assessed as reduction in cell viability at 5 to 15 uM incubated for 24 hrs in presence of polyamine transporter inhibitor, Spd by MTT assay; format: functional, cell-based; settings: dose 5-15 µM
HepG2 [2] = assay: Cytotoxicity against human HepG2 cells assessed as inhibition of cell growth incubated for 48 hrs by MTT assay; format: functional, cell-based; settings: HepG2, 48 h
Huh-7 [3] = assay: Cytotoxicity against human Huh-7 cells assessed as inhibition of cell growth incubated for 48 hrs by MTT assay; format: functional, cell-based; settings: Huh-7, 48 h
MDA-MB-231 = assay: Cytotoxicity against human MDA-MB-231 cells assessed as inhibition of cell growth incubated for 48 hrs by MTT assay; format: functional, cell-based; settings: MDA-MB-231, 48 h
MCF7 = assay: Cytotoxicity against human MCF7 cells assessed as inhibition of cell growth incubated for 48 hrs by MTT assay; format: functional, cell-based; settings: MCF7, 48 h
A549 [4] = assay: Cytotoxicity against human A549 cells assessed as inhibition of cell growth incubated for 48 hrs by MTT assay; format: functional, cell-based; settings: A549, 48 h
A549 [5] = assay: Cytotoxicity against cisplatin-resistant human A549 cells assessed as inhibition of cell growth incubated for 48 hrs by MTT assay; format: functional, cell-based; settings: A549, 48 h
[6] = Resistance factor, ratio of IC50 for cisplatin-resistant human A549 cells to IC50 for human A549 cells; format: functional
HepG2 [7] = assay: Cytotoxicity against human HepG2 cells assessed as inhibitory of cell growth measured after 24 hrs by MTT assay; format: functional, cell-based; settings: HepG2, 24 h
Huh-7 [8] = assay: Cytotoxicity against human Huh-7 cells assessed as inhibition of cell growth measured after 24 hrs by MTT assay; format: functional, cell-based; settings: Huh-7, 24 h
L02 = assay: Cytotoxicity against human HL7702 cells assessed as inhibition of cell growth measured after 24 hrs by MTT assay; format: cell-based; settings: L02, 24 h
[9] = Selectivity index, ratio of IC50 for human HL7702 cells to IC50 for human HepG2 cells; format: toxicity; settings: HL7702 cells and HepG2 cells, read-out: Ratio IC50
[10] = Selectivity index, ratio of IC50 for human HL7702 cells to IC50 for human Huh-7 cells; format: toxicity; settings: HL7702 cells and Huh-7 cells, read-out: Ratio IC50
[11] = Antitumor activity against human HCC cells xenografted in BALB/c mouse assessed as inhibition of tumor weight at 1 mg/kg, iv administered once daily for 7 days; format: functional; settings: 168 h, time 7 day
[12] = Antitumor activity against human HCC cells xenografted in BALB/c mouse assessed as inhibition of tumor weight at 3 mg/kg, iv administered once daily for 7 days; format: functional; settings: 168 h, time 7 day
[13] = Antitumor activity against human HCC cells xenografted in BALB/c mouse assessed as inhibition of tumor weight at 5 mg/kg, iv administered once daily for 7 days; format: functional; settings: 168 h, time 7 day
[14] = Antimetastatic activity against human HCC cells xenografted in BALB/c mouse assessed as reduction lung metastatic nodules at 1 mg/kg, iv administered once every 2 days for 14 days; format: functional; settings: 336 h, time 14 day
[15] = Antimetastatic activity against human HCC cells xenografted in BALB/c mouse assessed as reduction lung metastatic nodules at 3 mg/kg, iv administered once every 2 days for 14 days; format: functional; settings: 336 h, time 14 day
[16] = Antimetastatic activity against human HCC cells xenografted in BALB/c mouse assessed as reduction lung metastatic nodules at 5 mg/kg, iv administered once every 2 days for 14 days; format: functional; settings: 336 h, time 14 day
HepG2 [17] = assay: Cytotoxicity against human HepG2 cells assessed as reduction in cell viability at 5 to 15 uM incubated for 24 hrs in presence of polyamine transporter inhibitor, Spd by MTT assay; format: functional, cell-based; settings: dose 5-15 µM
HepG2 [18] = assay: Inhibition of tumor metastasis in human HepG2 cells assessed as downregulation of HMGB1 gene expression level measured after 24 hrs by qRT-PCR analysis; format: functional, cell-based; settings: dose 5-15 µM
HepG2 [19] = assay: Inhibition of tumor metastasis in human HepG2 cells assessed as upregulation of p62 gene expression level at 5 to 15 uM measured after 24 hrs by qRT-PCR analysis; format: functional, cell-based; settings: dose 5-15 µM
HepG2 [20] = assay: Inhibition of tumor metastasis in human HepG2 cells assessed as downregulation of LC3-II gene expression level at 5 to 15 uM measured after 24 hrs by qRT-PCR analysis; format: functional, cell-based; settings: dose 5-15 µM
HepG2 [21] = assay: Inhibition of tumor metastasis in human HepG2 cells assessed as upregulation of LC3-I gene expression level at 5 to 15 uM measured after 24 hrs by qRT-PCR analysis; format: functional, cell-based; settings: dose 5-15 µM
A549 [22] = assay: Inhibition of tumor metastasis in cisplatin-resistant human A549 cells assessed as upregulation of p53 expression level at 5 to 15 uM measured after 24 hrs by western blot analysis; format: functional, cell-based; settings: dose 5-15 µM
HepG2 [23] = assay: Inhibition of tumor metastasis in human HepG2 cells assessed as upregulation of SSAT gene expression level at 5 to 15 uM measured after 24 hrs by qRT-PCR analysis; format: functional, cell-based; settings: dose 5-15 µM
[24] = Upregulation of PAO expression in human HepG2 cells at 10 uM measured after 24 hrs relative to control; format: functional
[25] = Upregulation of PAO expression in human Huh-7 cells at 10 uM measured after 24 hrs relative to control; format: functional
HepG2 [26] = assay: Downregulation of Putrescine contents in human HepG2 cells measured after 24 hrs by HPLC analysis; format: functional, cell-based
HepG2 [27] = assay: Downregulation of Spermidine contents in human HepG2 cells measured after 24 hrs by HPLC analysis; format: functional, cell-based
HepG2 [28] = assay: Downregulation of Spermine contents in human HepG2 cells measured after 24 hrs by HPLC analysis; format: functional, cell-based
Huh-7 [29] = assay: Downregulation of Putrescine contents in human Huh-7 cells measured after 24 hrs by HPLC analysis; format: functional, cell-based

## NCCCCNCCCCNCCCCN1C(=O)c2cccc3cc(NC(=O)CN)cc(c23)C1=O
Huh-7 [1]
  Activity: inactive
HepG2 [2]
  IC50: 1.32 µM
Huh-7 [3]
  IC50: 0.98 µM
MDA-MB-231
  IC50: 15.4 µM
MCF7
  IC50: 16.2 µM
A549 [4]
  IC50: 20.3 µM
A549 [5]
  IC50: 15.5 µM
[6]
  Ratio IC50: 0.76
HepG2 [7]
  IC50: 1.32 µM
Huh-7 [8]
  IC50: 0.98 µM
L02
  IC50: 6.3 µM
[9]
  selectivity ratio: 4.77
[10]
  selectivity ratio: 6.43
[11]
  inhibition in vivo at 1 mg/kg: 58.5%
[12]
  inhibition in vivo at 3 mg/kg: 70.1%
[13]
  inhibition in vivo at 5 mg/kg: 76%
[14]
  inhibition in vivo at 1 mg/kg: 58.5%
[15]
  inhibition in vivo at 3 mg/kg: 65.5%
[16]
  inhibition in vivo at 5 mg/kg: 75%
HepG2 [17]
  Activity: inactive
HepG2 [18]
  inhibition: Dose-Dependent Effect
HepG2 [19]
  inhibition: Active
HepG2 [20]
  inhibition: Active
HepG2 [21]
  inhibition: Active
A549 [22]
  inhibition: Active
HepG2 [23]
  inhibition: Active
[24]
  fold change (FC): 1.5
[25]
  fold change (FC): 1.5
HepG2 [26]
  inhibition: Active
HepG2 [27]
  inhibition: Active
HepG2 [28]
  inhibition: Active
Huh-7 [29]
  inhibition: Active
